{"source": "paper PMC2639596", "about": "“Antimicrobial peptides effectively kill a broad spectrum of Listeria monocytogenes and Staphylococcus aureus strains independently of origin, sub-type, or virulence factor expression” (BMC Microbiology, 2008)", "key": {"Listeria monocytogenes": {"system": "Listeria monocytogenes", "conditions": "for MIC (MEC): radial diffusion, MHB/1% agarose, overnight, 37°C", "procedure": "(§1) The MEC of HBD-3 was assayed on a sub-selection of strains using a radial diffusion assay with some modifications. In brief, MHB/1% agarose was supplemented with glucose to an end-concentration of 0.1% (w/V) to enhance the growth of L. monocytogenes and improve the visualization of the inhibition zones. […] Following solidification on a leveling table, 1 mm wells were punched with a Pasteur pipette. Two-fold dilutions of HBD-3 were prepared in 0.01% acetic acid/0.1% bovine serum albumin to a concentration range of 0.25–256 μg/ml and 2 μl was added to each well. […] Each strain was tested in two independent trials.\n(§2) The bacteria were prepared and mixed with MHB/1% agarose as described above and 50 ml gel was poured into 140 mm Petri dishes. The gel was allowed to solidify and 3 mm wells were punched. […] The plates were incubated overnight at 37°C and the MEC was read as described above."}, "Staphylococcus aureus": {"system": "Staphylococcus aureus", "conditions": "for MIC (MEC): radial diffusion, MHB/1% agarose, overnight, 37°C", "procedure": "as §1, §2"}}, "note": "Read-outs that look alike come from different tables or passages of the source.", "data": [{"smiles": "OO", "note": "[hydrogen peroxide]", "values": [{"measurement": "MEC values against L. monocytogenes (range over strains)", "setting": "Listeria monocytogenes; radial diffusion assay, all strains tested", "value": "0.12–0.94 % (V/V)"}, {"measurement": "MIC (MEC)", "setting": "Listeria monocytogenes; strain 2275 (EGD dps del)", "value": "0.94 % (V/V)"}, {"measurement": "MIC (MEC)", "setting": "Listeria monocytogenes; strain 2307 (EGD resD del)", "value": "0.12 % (V/V)"}, {"measurement": "MIC (MEC)", "setting": "Listeria monocytogenes; strain 2315 (EGD sigB del)", "value": "0.94 % (V/V)"}, {"measurement": "MIC (MEC)", "setting": "Listeria monocytogenes; strain 2317 (EGD prfA del)", "value": "0.94 % (V/V)"}, {"measurement": "MIC (MEC)", "setting": "Listeria monocytogenes; strain 2374 (EGD perR ins)", "value": "0.94 % (V/V)"}, {"measurement": "MIC (MEC)", "setting": "Listeria monocytogenes; strain 2375 (EGD perR del)", "value": "0.94 % (V/V)"}, {"measurement": "MIC (MEC)", "setting": "Listeria monocytogenes; strain 4239", "value": "0.23 % (V/V)"}, {"measurement": "MIC (MEC)", "setting": "Listeria monocytogenes; strain 4446", "value": "0.47 % (V/V)"}, {"measurement": "MIC (MEC)", "setting": "Listeria monocytogenes; strain 4459", "value": "0.23 % (V/V)"}, {"measurement": "MIC (MEC)", "setting": "Listeria monocytogenes; strain 4666", "value": "0.18 % (V/V)"}, {"measurement": "MIC (MEC)", "setting": "Listeria monocytogenes; strain 6895", "value": "0.35 % (V/V)"}, {"measurement": "MIC (MEC)", "setting": "Listeria monocytogenes; strain 7291", "value": "0.47 % (V/V)"}, {"measurement": "MIC (MEC)", "setting": "Listeria monocytogenes; strain 7418", "value": "0.18 % (V/V)"}, {"measurement": "MIC (MEC)", "setting": "Listeria monocytogenes; strain EGD (wildtype)", "value": "0.47 % (V/V)"}, {"measurement": "MIC (MEC)", "setting": "Listeria monocytogenes; strain H13-1", "value": "0.94 % (V/V)"}, {"measurement": "MIC (MEC)", "setting": "Listeria monocytogenes; strain LO28 (wildtype)", "value": "0.47 % (V/V)"}, {"measurement": "MIC (MEC)", "setting": "Listeria monocytogenes; strain La22", "value": "0.23 % (V/V)"}, {"measurement": "MIC (MEC)", "setting": "Listeria monocytogenes; strain La111", "value": "0.94 % (V/V)"}, {"measurement": "MIC (MEC)", "setting": "Listeria monocytogenes; strain M103-1", "value": "0.94 % (V/V)"}, {"measurement": "MIC (MEC)", "setting": "Listeria monocytogenes; strain N53-1", "value": "0.47 % (V/V)"}, {"measurement": "MIC (MEC)", "setting": "Listeria monocytogenes; strain No40-1", "value": "0.47 % (V/V)"}, {"measurement": "MIC (MEC)", "setting": "Listeria monocytogenes; strain O57", "value": "0.47 % (V/V)"}, {"measurement": "MIC (MEC)", "setting": "Listeria monocytogenes; strain R479a", "value": "0.47 % (V/V)"}, {"measurement": "MIC (MEC)", "setting": "Listeria monocytogenes; strain V518a", "value": "0.94 % (V/V)"}, {"measurement": "MEC values against S. aureus (range over strains)", "setting": "Staphylococcus aureus", "value": "0.12–0.47 % (V/V)"}, {"measurement": "MIC (MEC)", "setting": "Staphylococcus aureus; strain ΔdltA (Sa113 dltA ins)", "value": "0.23 % (V/V)"}, {"measurement": "MIC (MEC)", "setting": "Staphylococcus aureus; strain ΔmprF (Sa113 mprF del)", "value": "0.12 % (V/V)"}]}]}
